# Laboratory results from PubChem BioAssay AID504754 (National Center for Advancing Translational Sciences (NCATS), 2011).
# System: mouse liver microsomes, LC-MS/MS half-life
# Assay: Inhibitors of Cruzain: Metabolic Stability Theory
# Details: at 1 µM; stronger effect = higher value
# Text: Chagas Disease is a neglected tropical disease that affects over 16 million people in Latin America. The cysteine protease cruzain is essential for the survival Trypanosoma cruzi, the parasitic agent responsible for Chagas disease. Potential intervention for T. cruzi includes the inhibition of cruzain. This bioassay will summarize the ongoing development of small molecule cruzain inhbitiors. Currently, a screen of ~200k compounds and through extensive follow-up work a probe was identified. To further characterize the probe, it was tested in in vitro ADME assays. Mouse liver microsomes are created through broken up endoplasmic reticulum from mouse liver. These liver microsomes contain many drug metabolizing enzymes, such as Cytochome P-450s and flavin-containing monooxygenases. Because metabolism is major way of drug clearance, this is an important result. NIH Chemical Genomics Center [NCGC] NIH Molecular Libraries Probe Production Centers Network [MLPCN] MLSCN Grant: DA024891-01 PI Name: Dr. Brian Shoichet; University of California, San Francisco
# 1uM of compound in incubated in mouse liver microsome; the reference compound is ketanserin. Compounds are incubated at 37 degrees C for different time periods: 0, 5, 15, 30, 45, and 60 minutes. Samples are analyzed with LC-MS/MS.
smiles,measurement,value
Cc1ccc(OCCn2c(CCNC(=O)C3CCCCC3)nc3ccccc32)cc1,half-life,8 min
